Article PMC6048161, “Inward-facing conformation of L-ascorbate transporter suggests an elevator mechanism” (Cell Discovery, 2018)

Tests used:
[1] = target: T1, ecUlaA (Escherichia coli, UniProt P39301, T86P); test: isothermal titration calorimetry; assay type: binding
T1 construct: gene ulaA; homologue genes cloned in pET21b with C-terminal His8, E. coli C43(DE3)

[2] = target: T2, ecUlaA (Escherichia coli, UniProt P39301); test: isothermal titration calorimetry; settings: ITC performed as in ref. 11; detergent-purified protein; read-out: binding affinity; cited from earlier work
T2 construct: gene ulaA; homologue genes cloned in pET21b with C-terminal His8, E. coli C43(DE3)

Q: Which Kd [1] does the source give for `O=C1O[C@H]([C@@H](O)CO)C(O)=C1O` [vitamin C] here?
A: ~26.5 µM

Q: What about the Kd [2] of the same molecule?
A: 6.1 ± 0.9 µM
